Reference: ChEMBL document CHEMBL4414672, “Synthesis of certain benzothieno[3,2-d]pyrimidine derivatives as a selective SIRT2 inhibitors” (Eur J Med Chem, 2020)

Key:
Assay type in all cases: functional
CAKI-1 = assay: Growth inhibition of human Caki1 cells at 10^-5 M incubated for 48 hrs by sulforhodamine B assay; conditions: CAKI-1, 48 h, read-out: GI
SK-MEL-5 = assay: Growth inhibition of human SK-MEL-5 cells at 10^-5 M incubated for 48 hrs by sulforhodamine B assay; conditions: SK-MEL-5, 48 h, read-out: GI
OVCAR-3 = assay: Growth inhibition of human OVCAR3 cells at 10^-5 M incubated for 48 hrs by sulforhodamine B assay; conditions: OVCAR-3, 48 h, read-out: GI
UACC-62 = assay: Growth inhibition of human UACC62 cells at 10^-5 M incubated for 48 hrs by sulforhodamine B assay; conditions: UACC-62, 48 h, read-out: GI
COLO 205 = assay: Growth inhibition of human COLO205 cells at 10^-5 M incubated for 48 hrs by sulforhodamine B assay; conditions: COLO 205, 48 h, read-out: GI
A498 = assay: Growth inhibition of human A498 cells at 10^-5 M incubated for 48 hrs by sulforhodamine B assay; conditions: A498, 48 h, read-out: GI
PC-3 = assay: Growth inhibition of human PC3 cells at 10^-5 M incubated for 48 hrs by sulforhodamine B assay; conditions: PC-3, 48 h, read-out: GI
MDA-MB-468 = assay: Growth inhibition of human MDA-MB-468 cells at 10^-5 M incubated for 48 hrs by sulforhodamine B assay; conditions: MDA-MB-468, 48 h, read-out: GI
NCI/ADR-RES = assay: Growth inhibition of human NCI/ADR-RES cells at 10^-5 M incubated for 48 hrs by sulforhodamine B assay; conditions: read-out: GI
HCC 2998 = assay: Growth inhibition of human HCC2998 cells at 10^-5 M incubated for 48 hrs by sulforhodamine B assay; conditions: HCC 2998, 48 h, read-out: GI
SF-268 = assay: Growth inhibition of human SF268 cells at 10^-5 M incubated for 48 hrs by sulforhodamine B assay; conditions: SF-268, 48 h, read-out: GI
UACC-257 = assay: Growth inhibition of human UACC257 cells at 10^-5 M incubated for 48 hrs by sulforhodamine B assay; conditions: UACC-257, 48 h, read-out: GI
SR = assay: Growth inhibition of human SR cells at 10^-5 M incubated for 48 hrs by sulforhodamine B assay; conditions: read-out: GI
HOP-92 = assay: Growth inhibition of human HOP92 cells at 10^-5 M incubated for 48 hrs by sulforhodamine B assay; conditions: HOP-92, 48 h, read-out: GI
ACHN = assay: Growth inhibition of human ACHN cells at 10^-5 M incubated for 48 hrs by sulforhodamine B assay; conditions: read-out: GI
SK-OV-3 = assay: Growth inhibition of human SKOV3 cells at 10^-5 M incubated for 48 hrs by sulforhodamine B assay; conditions: SK-OV-3, 48 h, read-out: GI
NCI-H23 = assay: Growth inhibition of human NCI-H23 cells at 10^-5 M incubated for 48 hrs by sulforhodamine B assay; conditions: NCI-H23, 48 h, read-out: GI
EKVX = assay: Growth inhibition of human EKVX cells at 10^-5 M incubated for 48 hrs by sulforhodamine B assay; conditions: read-out: GI
TK-10 = assay: Growth inhibition of human TK10 cells at 10^-5 M incubated for 48 hrs by sulforhodamine B assay; conditions: TK-10, 48 h, read-out: GI
SN12C = assay: Growth inhibition of human SN12C cells at 10^-5 M incubated for 48 hrs by sulforhodamine B assay; conditions: read-out: GI
Hs-578T = assay: Growth inhibition of human Hs 578T cells at 10^-5 M incubated for 48 hrs by sulforhodamine B assay; conditions: read-out: GI
A549 = assay: Growth inhibition of human A549/ATCC cells at 10^-5 M incubated for 48 hrs by sulforhodamine B assay; conditions: A549, 48 h, read-out: GI
OVCAR-5 = assay: Growth inhibition of human OVCAR5 cells at 10^-5 M incubated for 48 hrs by sulforhodamine B assay; conditions: OVCAR-5, 48 h, read-out: GI
NCI-H226 = assay: Growth inhibition of human NCI-H226 cells at 10^-5 M incubated for 48 hrs by sulforhodamine B assay; conditions: NCI-H226, 48 h, read-out: GI
BT-549 = assay: Growth inhibition of human BT549 cells at 10^-5 M incubated for 48 hrs by sulforhodamine B assay; conditions: BT-549, 48 h, read-out: GI
Malme-3M = assay: Growth inhibition of human MALME-3M cells at 10^-5 M incubated for 48 hrs by sulforhodamine B assay; conditions: read-out: GI
SW-620 = assay: Growth inhibition of human SW620 cells at 10^-5 M incubated for 48 hrs by sulforhodamine B assay; conditions: SW-620, 48 h, read-out: GI
HT-29 = assay: Growth inhibition of human HT-29 cells at 10^-5 M incubated for 48 hrs by sulforhodamine B assay; conditions: HT-29, 48 h, read-out: GI
OVCAR-8 = assay: Growth inhibition of human OVCAR8 cells at 10^-5 M incubated for 48 hrs by sulforhodamine B assay; conditions: OVCAR-8, 48 h, read-out: GI
IGROV-1 = assay: Growth inhibition of human IGROV1 cells at 10^-5 M incubated for 48 hrs by sulforhodamine B assay; conditions: IGROV-1, 48 h, read-out: GI
DU-145 = assay: Growth inhibition of human DU145 cells at 10^-5 M incubated for 48 hrs by sulforhodamine B assay; conditions: DU-145, 48 h, read-out: GI
MDA-MB-231 = assay: Growth inhibition of human MDA-MB-231 cells at 10^-5 M incubated for 48 hrs by sulforhodamine B assay; conditions: MDA-MB-231, 48 h, read-out: GI
SNB-75 = assay: Growth inhibition of human SNB75 cells at 10^-5 M incubated for 48 hrs by sulforhodamine B assay; conditions: SNB-75, 48 h, read-out: GI
K562 = assay: Growth inhibition of human K562 cells at 10^-5 M incubated for 48 hrs by sulforhodamine B assay; conditions: K562, 48 h, read-out: GI
NCI-H322M = assay: Growth inhibition of human NCI-H322M cells at 10^-5 M incubated for 48 hrs by sulforhodamine B assay; conditions: read-out: GI
M14 = assay: Growth inhibition of human M14 cells at 10^-5 M incubated for 48 hrs by sulforhodamine B assay; conditions: M14, 48 h, read-out: GI
RXF 393 = assay: Growth inhibition of human RXF393 cells at 10^-5 M incubated for 48 hrs by sulforhodamine B assay; conditions: RXF 393, 48 h, read-out: GI
MCF7 = assay: Growth inhibition of human MCF7 cells at 10^-5 M incubated for 48 hrs by sulforhodamine B assay; conditions: MCF7, 48 h, read-out: GI
U-251 = assay: Growth inhibition of human U251 cells at 10^-5 M incubated for 48 hrs by sulforhodamine B assay; conditions: U-251, 48 h, read-out: GI

N=C1Nc2c(sc3ccc(Cl)cc23)C(c2cccc([N+](=O)[O-])c2)N1 (centres undefined)
inhibition of growth at 10 µM (CAKI-1): -10.8%
inhibition of growth at 10 µM (SK-MEL-5): -2.55%
inhibition of growth at 10 µM (OVCAR-3): 10.7%
inhibition of growth at 10 µM (UACC-62): 23.1%
inhibition of growth at 10 µM (COLO 205): -31%
inhibition of growth at 10 µM (A498): 9.1%
inhibition of growth at 10 µM (PC-3): -10.1%
inhibition of growth at 10 µM (MDA-MB-468): 1.02%
inhibition of growth at 10 µM (NCI/ADR-RES): 8.91%
inhibition of growth at 10 µM (HCC 2998): 9.09%
inhibition of growth at 10 µM (SF-268): -1.81%
inhibition of growth at 10 µM (UACC-257): 9.45%
inhibition of growth at 10 µM (SR): -3.11%
inhibition of growth at 10 µM (HOP-92): 19.2%
inhibition of growth at 10 µM (ACHN): 22.8%
inhibition of growth at 10 µM (SK-OV-3): -1.73%
inhibition of growth at 10 µM (NCI-H23): 5.31%
inhibition of growth at 10 µM (EKVX): 15.1%
inhibition of growth at 10 µM (TK-10): 40.3%
inhibition of growth at 10 µM (SN12C): -19.7%
inhibition of growth at 10 µM (Hs-578T): -17.4%
inhibition of growth at 10 µM (A549): 20.4%
inhibition of growth at 10 µM (OVCAR-5): -1.04%
inhibition of growth at 10 µM (NCI-H226): 14.4%
inhibition of growth at 10 µM (BT-549): 5.75%
inhibition of growth at 10 µM (Malme-3M): -4.49%
inhibition of growth at 10 µM (SW-620): 3.17%
inhibition of growth at 10 µM (HT-29): 1.65%
inhibition of growth at 10 µM (OVCAR-8): 9.4%
inhibition of growth at 10 µM (IGROV-1): 4.94%
inhibition of growth at 10 µM (DU-145): 20.5%
inhibition of growth at 10 µM (MDA-MB-231): -0.16%
inhibition of growth at 10 µM (SNB-75): -4.54%
inhibition of growth at 10 µM (K562): 9.47%
inhibition of growth at 10 µM (NCI-H322M): 4.7%
inhibition of growth at 10 µM (M14): -5.05%
inhibition of growth at 10 µM (RXF 393): 4.42%
inhibition of growth at 10 µM (MCF7): 10.7%
inhibition of growth at 10 µM (U-251): 0.68%
